In data set [1] the test system is LNCaP cells. In words: Viability (MTS assay) of LNCaP cells treated with eliglustat following Cav-1 overexpression. It is filed as cell-based, human. The following applies: 64 μM eliglustat. Here is the method: (§1) FIGS. 18A and 18B show (18A) the viability (MTS assay) of PC-3M cells treated with 128 μM eliglustat after (left) knockdown of CAV1: or (right) following pre-treatment with Cav-1 monoclonal blocking antibody: (i) siCtrl (ii) siCAV1-1 (iii) siCAV1-2 (iv) IgG=vehicle (v) IgG+Eliglustat (vi) abCAV1+Vehicle (vii) abCAV1+Eliglustat. (18B) Viability (MTS assay) of LNCaP cells treated with 64 μM eliglustat following Cav-1 overexpression.

Data set [2] deals with RM-9 prostate cancer cells. Briefly: Lipidome alterations after short-term pharmacological inhibition of UGCG in RM-9 cells. It counts as cell-based, mouse. The following applies: 6 hr, 128 μM Eliglustat, 64 μM PDMP, 64 μM PPMP. From the text:
(§2) FIGS. 16A, 16B, and 16C show (16A) the induction of autophagy/mitophagy by exposure of PC-3M prostate cancer cells to Eliglustat. (i) cytotoxicity (ii) apoptosis at 4 hrs (iii) apoptosis at 24 hrs. N=3 biologically independent replicates per experimental condition. Values represent log(relative fluorescence units)±StDev. Also shown are volcano plots illustrating differences in annotated lipid species stratified by lipid domains in (16B) PC-3M and (16C) RM-9 prostate cancer cells following 6 hr challenge with 128 μM Eliglustat. (i) acylcarnitines (ii) cardiolipins (iii) diacylglycerols (iv) ether lysophospholipids (v) ether phospholipids (vi) lysophospholipids (vii) phospholipids (viii) cholesterol esters (ix) triacylglycerols (x) sphingomyelins. N=3 biologically independent replicates per experimental condition.
(§3) Sample Extraction Following transfections, cell lysates were washed 2× with pre-chilled 0.9% NaCl followed by addition of 2.5 mL of pre-chilled 3:1 isopropanol:ultrapure water. Cells were scraped using a 25 cm Cell Scraper (Sarstedt) in extraction solvent and transferred to a 15 mL conical tube (Eppendorf). Samples were briefly vortexed followed by centrifugation at 4° C. for 10 min at 2,000×g. Thereafter, 1.2 mL of metabolite extracts were transferred to 1.5 mL Eppendorf tubes and stored in −20° C. until metabolomic analysis.
(§4) Complex Lipids Pre-aliquoted EDTA plasma samples (10 μL) were extracted with 30 μL of LCMS grade 2-propanol (ThermoFisher) in a 96-well microplate (Eppendorf). Plates were heat sealed, vortexed for 5 min at 750 rpm, and centrifuged at 2000×g for 10 minutes at room temperature. The supernatant (10 μL) was carefully transferred to a 96-well plate, leaving behind the precipitated protein. The supernatant was further diluted with 90 μL of 1:3:2 100 mM ammonium formate, pH 3 (ThermoFisher): acetonitrile: 2-propanol and transferred to a 384-well microplate (Eppendorf) for lipids analysis using LCMS. […]

Data set [3] has as its system PC-3M prostate cancer cells. Briefly: Lipidome alterations after short-term pharmacological inhibition of UGCG in PC-3M cells. It counts as cell-based, human. The following applies: 6 hr, 128 μM Eliglustat, 64 μM PDMP, 64 μM PPMP.
Source text: as §2, §3, §4

The test system of data set [4] is PC-3M prostate cancer cells. In words: Cytotoxicity and apoptosis of PC-3M cells exposed to eliglustat. It counts as cell-based. As for the experimental part:
(§5) To test this hypothesis, the efficacy of PDMP, PPMP and eliglustat three different inhibitors of glucosylceramide synthase (also known as UGCG; UDP-glucose:ceramide glucosyltransferase), a rate-limiting enzyme in glycosphingolipid metabolism, for reducing viability of RM-9 and PC-3M prostate cancer cells in vitro was then evaluated.

Data set [5] concerns RM-9 tumors. Briefly: RM-9-luciferase subcutaneous tumor model in C57BL/6N mice. It is filed as in vivo, mouse. As for the experimental part: FIGS. 19A, 19B, 19C, and 19D show the efficacy of eliglustat in an in vivo mouse model. (19A) Relative fluorescence units±SEM of RM-9 tumors following daily intraperitoneal injection with either (i) saline (n=23) or (ii) eliglustat (60 mg/kg) (n=9). (19B) Tumor Volume±SEM following treatment with either saline (n=15) or eliglustat (60 mg/kg) (n=8). Statistical significance was determined by 2-sided Wilcoxon-rank sum test. (19C) Representative IVIS images following treatment. (19D) Relative abundance (area units±StDev) of glycosphinoglipids in RM-9 tumors following treatment.
FIGS. 20A, 20B, 20C, 20D, 20E, and 20F show quantitative analyses derived from immunohistochemistry staining for (20A) Cav-1, (20B) BrdU-TUNEL, (20C) PCNA, (20D) HMGB1 and (20E) LC3B in RM-9 tumors following treatment with either saline (n=6-8 mice) or eliglustat (n=7 mice). Vertical axes are (20A) Cav-1 staining score, (20B) apoptotic bodies/fd, (20C) % of PCNA labeling, (20D) % of cytoplasmic HMGB1, and (20E) LC-3B positive cells/fd. Statistical significance was determined by 2-sided Wilcoxon rank sum test. Also shown is (20F) volcano plot illustrating fold change in individual annotated lipid species stratified by lipid domain in plasma of RM-9 bearing C57BL/6N mice or control mice. (i) acylcarnitines (ii) ceramides (iii) cholesterol esters (iv) diacylglycerols (v) free fatty acids (vi) glycosphingolipids (vii) lysophospholipids (viii) oxylipins (ix) phospholipids (x) sphingomyelins (x) triacylglycerols.
Inhibition of tumor growth by eliglustat was next examined. RM-9 cells harbor driver oncogenic RAS and MYC genes which model RAS-MAPK pathway activation and MYC-driven transcriptional activities which are associated with aggressive primary prostate cancer. RM-9-luciferase cells were subcutaneously implanted into C57BL/6N mice. RM-9 tumor growth was suppressed by eliglustat (FIGS. 19A, 19B, and 19C). […] In addition, plasma Cav-1 levels tended to be elevated in RM-9 tumor-bearing mice compared to control mice.

For data set [6], the system named is PC-3M cells. In words: Viability (MTS assay) of PC-3M cells treated with eliglustat after CAV1 knockdown or Cav-1 blocking antibody. It counts as cell-based, human. The following applies: 128 μM eliglustat. Here is the method:
as §1
On the technique in general: Tetrazolium dyes change colour on reduction, which living cells bring about.

Data set [7] concerns PC-3M cells. In words: Mitophagy markers and mitochondrial morphology in PC-3M cells treated with eliglustat. It counts as cell-based, human. As for the experimental part:
FIGS. 17A, 17B, 17C, and 17D show representative confocal microscopy images for PC-3M cells following 24 hr pre-transfection with (i) CellLight Mitochondria-RFP (leader sequence of E1 alpha pyruvate dehydrogenase) or (ii) CellLight Lysosome-GFP (lysosomal associated 1052 membrane protein 1) followed by acute (6 hr) treatment with either (17A) vehicle or (17C) Eliglustat (128 μM). (17B) and (17D) correspond to enlargements of features from (17A) and (17C), respectively. (iii) merged images.

For data set [8], the system named is PC-3M prostate cancer cells. As for the experimental part: (§6) Horizontal axis=log(M); vertical axis=% viability relative to control. […] (i) vehicle (ii) 128 μM Eliglustat (iii) 64 μM PDMP (iv) 64 μM PPMP. Statistical significance was determined by 2-sided student t-test comparing the aggregate intensities of individual lipid species corresponding to the respective lipid domain.
as §5

The subject of data set [9] is RM-9 prostate cancer cells. Here is the method:
as §6, §5

The mark [10] stands for this setting: immunohistochemistry, RM-9 tumors.

Like-named read-outs stand apart in the source and are kept apart here.

In the case of `CCCCCCCC(=O)N[C@H](CN1CCCC1)[C@H](O)c1ccc2c(c1)OCCO2` [eliglustat], in data set [1], the “anti-cancer effect (viability, MTS) following Cav-1 overexpression” value is listed as “reduced the anti-cancer effects”. In data set [2], the “alterations in the lipidome” value was “accumulation of intracellular ceramides, acylcarnitines, lysophospholipids and diacylglycerols and reductions in glycosphingolipids, phospholipids and triacylglycerols”. In addition, the “alterations in the lipidome” value in data set [3] was “accumulation of intracellular ceramides, acylcarnitines, lysophospholipids and diacylglycerols and reductions in glycosphingolipids, phospholipids and triacylglycerols”. Moreover, in data set [4], the “mechanism of acute cytotoxic effects (cytotoxicity, apoptosis at 4 hrs and 24 hrs)” value is recorded as “non-apoptotic mechanism”. In data set [5] (C57BL/6N mice, 60 mg/kg daily intraperitoneal injection), the RM-9 tumor growth result is “suppressed”. In data set [5] (C57BL/6N mice, 60 mg/kg, metabolomics of tumor tissue), the “glycosphingolipids in RM-9 tumor tissue” value is given as “reductions in glycosphingolipids”. In [5] (setting [10]), the “BrdU-TUNEL staining in tumor tissue” value is given as “statistically significantly increased”, the “Cav-1 staining in tumor tissue” value is “statistically significantly reduced”, the “HMGB1 staining in tumor tissue” value is given as “statistically significantly increased” and the “LC3B staining in tumor tissue” value was “statistically significantly increased”. The “PCNA staining in tumor tissue” value in [5] (setting [10]) is given as “statistically significantly reduced”. For the same compound, in [6], the “sensitivity to eliglustat (viability, MTS) after knockdown of CAV1” value is recorded as “further sensitized”. Besides, in data set [7], the “protein expression of mitophagy-associated marker LC3B-II” value is “increased”. The “protein expression of Parkin and PINK1” value in data set [7] (acute (6 hr) treatment) is given as “increased”. Besides, the mitochondrial morphology result in data set [7] (acute (6 hr) treatment, 128 μM) was “loss of the branched, fused-like-mitochondrial architecture and accumulation of punctate mitochondria co-localized with the lysosome”. The “cytotoxicity (viability relative to control)” value in data set [8] (PC-3M cells, 48 hour treatment) is reported as “dose-dependent cytotoxicity”. Also, in [9] (RM-9 cells, 48 hour treatment), the “cytotoxicity (viability relative to control)” value is given as “dose-dependent cytotoxicity”.

In the case of `CCCCCCCCCCCCCCCC(=O)N[C@H](CN1CCOCC1)[C@H](O)c1ccccc1` [PPMP, D-threo-1-phenyl-2-hexadecanoylamino-3-morpholino-1-propanol], the “alterations in the lipidome” value in [2] is “accumulation of intracellular ceramides, acylcarnitines, lysophospholipids and diacylglycerols and reductions in glycosphingolipids, phospholipids and triacylglycerols”; in data set [3] it was “accumulation of intracellular ceramides, acylcarnitines, lysophospholipids and diacylglycerols and reductions in glycosphingolipids, phospholipids and triacylglycerols”. Further, the “cytotoxicity (viability relative to control)” value in [8] and in data set [9] was “dose-dependent cytotoxicity” in each case.

As to `CCCCCCCCCC(=O)NC(CN1CCOCC1)C(O)c1ccccc1` (stereo not shown) [PDMP, 1-phenyl-2-decanoylamino-3-morpholino-1-propanol], the “alterations in the lipidome” value in data set [2] was “accumulation of intracellular ceramides, acylcarnitines, lysophospholipids and diacylglycerols and reductions in glycosphingolipids, phospholipids and triacylglycerols”; in data set [3] it was “accumulation of intracellular ceramides, acylcarnitines, lysophospholipids and diacylglycerols and reductions in glycosphingolipids, phospholipids and triacylglycerols”. Moreover, the “cytotoxicity (viability relative to control)” value in [8] and in data set [9] was “dose-dependent cytotoxicity” in each case.

Source of the values: patent US20230358751A1, “METHODS FOR THE DETECTION AND TREATMENT OF PROSTATE CANCER” (Board of Regents, The University of Texas System, priority 2020, published 2023).
